According to patent publication US11912650B2, “Bakuchiol derivatives, pharmaceutically acceptable salts thereof, and preparation method and use of the same” (priority 2020, dated 2024):
Converted amounts (≈) assume the structure as drawn. Where two headings read alike, the source gives them in different places.

Key:
E. coli ATCC25922 = assay: Antibacterial activity assay (broth dilution MIC); assay type: cell-based; settings: Escherichia coli, 37° C., 24 h, compounds 38, 44-45, 58-61, 63-64 with 0.05% Tween 80
Procedure: (§1) Antibacterial activity assay. The antibacterial activities of all the compounds were determined according to a broth dilution method specified in Clinical and Laboratory Standards Institute (CLSI) guidelines. Bacterial cells were inoculated on a Mueller-Hinton agar (MHA) plate for overnight culture, and the concentration of the bacterial cells was adjusted to about 1×10^6 colony-forming units (CFU)/mL with phosphate buffered saline (PBS). First, a 1000 μg/mL stock solution (a final concentration of dimethyl sulfoxide (DMSO) was ≤2%) was prepared by dissolving a sample in DMSO/H2O. Then, the stock solution was diluted with Mueller-Hinton Broth (MHB) to an initial concentration of 100 μg/mL, and the sample solution (100 μL) was subjected to two-fold gradient dilution with MHB in a 96-well plate, to obtain 100 μg/mL to 0.78 μg/mL serial dilutions. Then, a bacterial suspension (100 μL) was added to each well of the 96-well plate and mixed with the test sample solution (100 μL). Among them, test systems for compounds 38, 44-45, 58-61 and 63-64 contained 0.05% of Tween 80. Finally, the 96-well plate was incubated at 37° C. for 24 hours. Absorbances at 600 nm at 0 and 24 h were measured. An minimum inhibitory concentration (MIC) value was defined as the lowest concentration where no visible bacterial growth occurred. All experiments were carried out in at least two duplicates, and biological repeatability could be achieved.

S. aureus ATCC29213 = assay: Antibacterial activity assay (broth dilution MIC); assay type: cell-based; settings: Staphylococcus aureus, 37° C., 24 h, compounds 38, 44-45, 58-61, 63-64 with 0.05% Tween 80
Procedure: as §1

Gram-positive bacteria = assay: Antibacterial activity against Gram-positive bacteria (MIC summary); assay type: cell-based; settings: 24 h, read-out: minimum inhibitory concentration (MIC) against Gram-positive bacteria
Procedure: as §1

MRSA NCTC10442 = assay: Antibacterial activity assay (broth dilution MIC); assay type: cell-based, methicillin-resistant Staphylococcus aureus; settings: Staphylococcus aureus, 37° C., 24 h, compounds 38, 44-45, 58-61, 63-64 with 0.05% Tween 80
Procedure: as §1

MRSA N315 = assay: Antibacterial activity assay (broth dilution MIC); assay type: cell-based, methicillin-resistant Staphylococcus aureus; settings: Staphylococcus aureus, 37° C., 24 h, compounds 38, 44-45, 58-61, 63-64 with 0.05% Tween 80
Procedure: as §1

Gram-negative bacteria = assay: Antibacterial activity against Gram-negative bacteria (MIC summary); assay type: cell-based; settings: 24 h; summary of tables 1 and 2
Procedure: as §1

Row | SMILES | MIC (E. coli ATCC25922) [µg/mL] | MIC (S. aureus ATCC29213) [µg/mL] | MIC (Gram-positive bacteria) [µg/mL] | MIC (MRSA NCTC10442) [µg/mL] | MIC (MRSA N315) [µg/mL] | MIC (Gram-positive bacteria; summary of tables 1 and 2) [µg/mL] | MIC (Gram-negative bacteria) [µg/mL]
1 | C=C[C@@](C)(/C=C/c1ccc(OCCCCN(C)C)cc1)CCC=C(C)C [Compound 5] | > 50 | 1.56 (≈ 4.39 µM) | 0.39 to 3.12 (≈ 1.1 to 8.79 µM) | 3.12 (≈ 8.79 µM) | 1.56 (≈ 4.39 µM) |  | 
2 | C=C[C@@](C)(/C=C/c1ccc(OCCCCN(CC)CC)cc1)CCC=C(C)C [Compound 6] | > 100 | 3.12 (≈ 8.15 µM) | 0.39 to 3.12 (≈ 1.02 to 8.15 µM) | 3.12 (≈ 8.15 µM) | 3.12 (≈ 8.15 µM) |  | 
3 | C=C[C@@](C)(/C=C/c1ccc(OCCCN(C)C)cc1)CCC=C(C)C [Compound 8] | > 100 | 6.25 (≈ 18.3 µM) |  | 6.25 (≈ 18.3 µM) | 6.25 (≈ 18.3 µM) |  | 
4 | C=C[C@@](C)(/C=C/c1ccc(OCCCN(CC)CC)cc1)CCC=C(C)C [Compound 9] | > 100 | 3.12 (≈ 8.46 µM) | 0.39 to 3.12 (≈ 1.06 to 8.46 µM) | 3.12 (≈ 8.46 µM) | 3.12 (≈ 8.46 µM) |  | 
5 | C=C[C@@](C)(/C=C/c1ccc(OCCCCCCCCN(CC)CC)cc1)CCC=C(C)C [Compound 11] | > 100 | 3.12 (≈ 7.11 µM) |  | 1.56 (≈ 3.55 µM) | 1.56 (≈ 3.55 µM) | 0.39 to 3.12 (≈ 0.887 to 7.11 µM) | 
6 | C=C[C@@](C)(/C=C/c1ccc(OCCCCCCCCCCN(CC)CC)cc1)CCC=C(C)C [Compound 12] | > 100 | 12.5 (≈ 26.7 µM) |  | 3.12 (≈ 6.68 µM) | 3.12 (≈ 6.68 µM) | 0.39 to 3.12 (≈ 0.834 to 6.68 µM) | 
7 | C=C[C@@](C)(/C=C/c1ccc(OCCCCN)cc1)CCC=C(C)C [Compound 13] | 12.5 (≈ 38.2 µM) | 1.56 (≈ 4.76 µM) |  | 1.56 (≈ 4.76 µM) | 0.78 (≈ 2.38 µM) | 0.39 to 3.12 (≈ 1.19 to 9.54 µM) | 
8 | C=C[C@@](C)(/C=C/c1ccc(OCCCCNCC)cc1)CCC=C(C)C [Compound 14] | 12.5 (≈ 35.2 µM) | 1.56 (≈ 4.39 µM) |  | 1.56 (≈ 4.39 µM) | 0.78 (≈ 2.19 µM) | 0.39 to 3.12 (≈ 1.1 to 8.79 µM) | 
9 | C=C[C@@](C)(/C=C/c1ccc(OCCCCNCCCC)cc1)CCC=C(C)C [Compound 15] | 12.5 (≈ 32.6 µM) | 1.56 (≈ 4.07 µM) |  | 1.56 (≈ 4.07 µM) | 1.56 (≈ 4.07 µM) | 0.39 to 3.12 (≈ 1.02 to 8.15 µM) | 
10 | C=C[C@@](C)(/C=C/c1ccc(OCCCCNCCCCCC)cc1)CCC=C(C)C [Compound 16] | 100 (≈ 243 µM) | 1.56 (≈ 3.79 µM) |  | 1.56 (≈ 3.79 µM) | 0.78 (≈ 1.89 µM) | 0.39 to 3.12 (≈ 0.947 to 7.59 µM) | 
11 | C=C[C@@](C)(/C=C/c1ccc(OCCCCNCCCCCCCC)cc1)CCC=C(C)C [Compound 17] | > 100 | 6.25 (≈ 14.2 µM) |  | 3.12 (≈ 7.11 µM) | 1.56 (≈ 3.55 µM) |  | 
12 | C=C[C@@](C)(/C=C/c1ccc(OCCCCNCCCCCCCCCC)cc1)CCC=C(C)C [Compound 18] | > 100 | 50 (≈ 107 µM) |  | 50 (≈ 107 µM) | 12.5 (≈ 26.7 µM) |  | 
13 | C=C[C@@](C)(/C=C/c1ccc(OCCCCN2CCCC2)cc1)CCC=C(C)C [Compound 20] | > 100 | 1.56 (≈ 4.09 µM) |  | 1.56 (≈ 4.09 µM) | 1.56 (≈ 4.09 µM) |  | 
14 | C=C[C@@](C)(/C=C/c1ccc(OCCCCN2CCN(C)CC2)cc1)CCC=C(C)C [Compound 21] | > 100 | 1.56 (≈ 3.8 µM) |  | 3.12 (≈ 7.61 µM) | 3.12 (≈ 7.61 µM) |  | 
15 | C=C[C@@](C)(/C=C/c1ccc(OCCCCN(Cc2ccccn2)Cc2ccccn2)cc1)CCC=C(C)C [Compound 22] | > 100 | 3.12 (≈ 6.13 µM) |  | 1.56 (≈ 3.06 µM) | 1.56 (≈ 3.06 µM) |  | 
16 | C=C[C@@](C)(/C=C/c1ccc(OCCCCN2CCN(CCCN(C)C)CC2)cc1)CCC=C(C)C [Compound 23] | 3.12 (≈ 6.49 µM) | 1.56 (≈ 3.24 µM) |  | 3.12 (≈ 6.49 µM) | 0.78 (≈ 1.62 µM) | 0.39 to 3.12 (≈ 0.81 to 6.49 µM) | 1.56 to 3.12 (≈ 3.24 to 6.49 µM)
17 | C=C[C@@](C)(/C=C/c1ccc(OCCCCN(C)CCCNC)cc1)CCC=C(C)C [Compound 24] | 1.56 (≈ 3.78 µM) | 1.56 (≈ 3.78 µM) |  | 1.56 (≈ 3.78 µM) | 0.78 (≈ 1.89 µM) | 0.39 to 3.12 (≈ 0.945 to 7.57 µM) | 1.56 to 3.12 (≈ 3.78 to 7.57 µM)
18 | C=C[C@@](C)(/C=C/c1ccc(OCCCCNCCSC)cc1)CCC=C(C)C [Compound 25] | 50 (≈ 124 µM) | 0.78 (≈ 1.94 µM) |  | 1.56 (≈ 3.88 µM) | 0.78 (≈ 1.94 µM) | 0.39 to 3.12 (≈ 0.971 to 7.78 µM) | 
